Measurements published in paper PMC12116762, “Topobexin targets the Topoisomerase II ATPase domain for beta isoform-selective inhibition and anthracycline cardioprotection” (Nature Communications, 2025).

Assays:
[1] = test system: neonatal rat ventricular cardiomyocytes (NVCM); assay: Protection against DAU-induced cytotoxicity (LDH release) in NVCM; type: cell-based; set-up: key to Suppl.Fig.3 DAU-induced cytotoxicity (LDH release) in NVCM, mean of independent replicates / LDH release (DAU-induced cytotoxicity), mean of independent replicates: % of total LDH activity; settings: for minimal effective concentration: Rattus norvegicus, Cardiomyocyte, NVCM, protection against DAU 1.2 µM, n=4, read-out: LEC = lowest effective concentration
Protocol: (§1) The protective effects of the BNS-22 and newly prepared compounds were evaluated using primary cultures of neonatal rat cardiomyocytes isolated in house as previously described. Hearts isolated from 1- to 3-day-old Wistar rats were minced in buffer (1.2 mM MgSO4 · 7H2O, 116 mM NaCl, 5.3 mM KCl, 1.13 mM NaH2PO4 · H2O, 20 mM 4-(2-hydroxyethyl)-1-piperazine ethanesulfonic acid (HEPES), glucose 1 mg/mL) on ice, then serially digested (20 min, six repetitions) at 37 °C with collagenase type II (60 U/mL, Gibco). After 2 h pre-plating in a 150 mm Petri dish per approximately 20 hearts to minimize non-myocyte contamination, cells were plated in 24-well gelatin-coated plates at a density of 400,000 cells per well. Cells were cultured at 37 °C and 5% CO2 in Dulbecco’s modified Eagle medium (DMEM)/ F12 culture medium supplemented with 10% horse serum, 5% fetal bovine serum (FBS), 20 mM sodium pyruvate, 50 U/mL penicillin, and 50 μg/mL streptomycin. Freshly isolated cells were left for 40 h to attach and form a culture of spontaneously beating cardiomyocytes, then the medium was changed to DMEM/F12 medium supplemented with 5% fetal bovine serum, 20 mM sodium pyruvate, 50 U/mL penicillin, and 50 μg/mL streptomycin. For the experiments, the medium was changed to serum- and pyruvate-free DMEM/F12 with 50 U/mL penicillin and 50 μg/mL streptomycin. Cardiomyocytes were pretreated with BNS-22 or new compounds for 3 h and then coincubated with DAU (1.2 µM) for another 3 h. After the DAU treatment period, the culture medium was exchanged for the drug-free DMEM/F12 with 50 U/mL penicillin and 50 μg/mL streptomycin for the 48 h follow-up. Experiments to determine the inherent toxicity of each compound studied follow the same schedule, only no DAU was added. Subsequently, the culture medium sample was taken from each well for evaluation of lactate dehydrogenase (LDH) activity. The total LDH activity of each sample for normalization was measured after 1 h of incubation at 37 °C in lysis buffer (0.1 M potassium phosphate, 1% Triton X-100, 1 mM dithiothreitol (DTT), 2 mM EDTA, pH 7.8, 15 min in RT). All samples were immediately analyzed in Tris HCl buffer (pH 8.9) containing 35 mM lactic acid and 5 mM NAD^+. The rate of NAD^+ reduction was monitored spectrophotometrically at 340 nm for 2 min. The slope of the linear region was calculated, and the results were expressed as a percentage of the total LDH. Each presented data point was obtained from distinct sample.

[2] = test system: neonatal rat ventricular cardiomyocytes (NVCM); assay: Inherent toxicity (LDH release) in NVCM; type: cell-based; set-up: key to LDH release (inherent toxicity), mean of independent replicates: % of total LDH activity; settings: NVCM; for LTC = lowest toxic concentration: compound alone, n=4; for LDH release (inherent toxicity), mean of independent replicates: Suppl.Fig.4
Protocol: as §1

| SMILES | minimal effective concentration [1] [µM] | Suppl.Fig.3 DAU-induced cytotoxicity (LDH release) in NVCM, mean of independent replicates ([1]; compound 0.1 µM + DAU 1.2 µM) | Suppl.Fig.3 DAU-induced cytotoxicity (LDH release) in NVCM, mean of independent replicates ([1]; compound 1 µM + DAU 1.2 µM) | Suppl.Fig.3 DAU-induced cytotoxicity (LDH release) in NVCM, mean of independent replicates ([1]; compound 10 µM + DAU 1.2 µM) | Suppl.Fig.3 DAU-induced cytotoxicity (LDH release) in NVCM, mean of independent replicates ([1]; compound 30 µM + DAU 1.2 µM) | Suppl.Fig.3 DAU-induced cytotoxicity (LDH release) in NVCM, mean of independent replicates ([1]; compound 100 µM + DAU 1.2 µM) | LTC = lowest toxic concentration [2] [µM] | LDH release (inherent toxicity), mean of independent replicates ([2]; compound alone 0.1 µM) | LDH release (inherent toxicity), mean of independent replicates ([2]; compound alone 1 µM) | LDH release (inherent toxicity), mean of independent replicates ([2]; compound alone 10 µM) | LDH release (inherent toxicity), mean of independent replicates ([2]; compound alone 30 µM) | LDH release (inherent toxicity), mean of independent replicates ([2]; compound alone 100 µM) | Suppl.Fig.3 DAU-induced cytotoxicity (LDH release) in NVCM, mean of independent replicates ([1]; compound 3 µM + DAU 1.2 µM) | LDH release (inherent toxicity), mean of independent replicates ([2]; compound alone 3 µM) | Suppl.Fig.3 DAU-induced cytotoxicity (LDH release) in NVCM, mean of independent replicates ([1]; compound 0.01 µM + DAU 1.2 µM) | LDH release (inherent toxicity), mean of independent replicates ([2]; compound alone 0.01 µM) |
| --- | --- | --- | --- | --- | --- | --- | --- | --- | --- | --- | --- | --- | --- | --- | --- | --- |
| CCCCc1cc(=O)oc2c(C(=O)N3CCCc4ccccc43)c(OC)cc(OC)c12 [1d] | 1 | 44.1431 | 30.0603 | 34.1459 | 74.3781 | 88.2455 | 30 | 14.3468 | 13.6854 | 20.4098 | 50.8474 | 76.157 |  |  |  |  |
| Cc1cc(=O)oc2c(C(=O)N3CCCc4ccccc43)c(O)ccc12 [2a] |  |  |  | 37.2223 | 39.137 | 42.8636 |  |  |  | 13.7502 | 15.9605 | 17.1189 |  |  |  |  |
| CCc1cc(=O)oc2c(C(=O)N3CCCc4ccccc43)c(O)ccc12 [2b] |  |  |  | 31.7392 | 34.9042 | 31.3386 |  |  |  | 17.3516 | 18.0926 | 18.5764 |  |  |  |  |
| COc1ccc2c(C)cc(=O)oc2c1C(=O)N1CCCc2ccccc21 [3a] |  |  | 38.7802 | 36.7927 |  |  | > 10 |  | 18.1168 | 15.937 |  |  | 37.7536 | 15.6047 |  |  |
| CCc1cc(=O)oc2c(C(=O)N3CCCc4ccccc43)c(OC)ccc12 [3b] |  |  | 33.4469 | 31.9857 |  |  | > 10 |  | 16.0681 | 15.3649 |  |  | 35.1015 | 15.619 |  |  |
| CCCCc1cc(=O)oc2c(C(=O)N3CCCc4ccccc43)c(OC)ccc12 [3d] | 1 | 40.2805 | 35.9225 | 25.0218 | 30.6397 |  | > 30 | 14.1948 | 16.3261 | 19.5649 | 19.0356 |  |  |  | 50.7769 | 14.5175 |
| CCCOc1ccc2c(C)cc(=O)oc2c1C(=O)N1CCCc2ccccc21 [4a] | 10 | 45.8753 | 42.086 | 32.6284 | 30.3987 |  | > 30 | 13.7469 | 13.1211 | 16.3565 | 19.993 |  |  |  |  |  |
| CCCOc1ccc2c(CC)cc(=O)oc2c1C(=O)N1CCCc2ccccc21 [4b] | 0.1 | 43.0735 | 30.3899 | 27.961 | 25.8835 | 28.6308 |  | 14.2064 | 13.8348 | 17.7301 | 17.7791 | 17.3487 |  |  | 47.614 | 14.7625 |
| CCCCc1cc(=O)oc2c(C(=O)N3CCCc4ccccc43)c(OCCC)ccc12 [4d] | 1 | 31.1377 | 25.022 | 40.2951 | 73.3675 | 78.9691 | 10 | 15.2686 | 16.9179 | 31.7424 | 60.5761 | 70.9323 |  |  | 36.4234 | 17.8445 |
